Measured values published in patent publication US11261174B2, “Pyrazole O-linked carbamoyl cyclohexyl acids as LPA antagonists” (BRISTOL-MYERS SQUIBB COMPANY, priority 2017, dated 2022).

Target: T1, LPA1 (Homo sapiens, UniProt Q92633)
Experiment: not given
Settings: IPF patients, 26-week clinical trial; cited from earlier work

T1 sequence (Q92633 whole entry): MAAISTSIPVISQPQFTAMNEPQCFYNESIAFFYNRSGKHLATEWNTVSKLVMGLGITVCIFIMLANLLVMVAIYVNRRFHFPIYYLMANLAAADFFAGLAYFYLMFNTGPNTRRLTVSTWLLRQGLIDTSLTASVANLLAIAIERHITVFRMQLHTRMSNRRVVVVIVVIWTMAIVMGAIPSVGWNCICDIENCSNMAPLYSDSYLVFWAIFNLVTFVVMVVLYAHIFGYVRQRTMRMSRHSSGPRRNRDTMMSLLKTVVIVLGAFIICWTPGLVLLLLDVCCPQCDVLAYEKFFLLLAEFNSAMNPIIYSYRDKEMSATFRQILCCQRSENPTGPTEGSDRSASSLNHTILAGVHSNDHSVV

Structure (SMILES)	rate of FVC (forced vital capacity) decline
Cc1noc(-c2ccc(-c3ccc(C4(C(=O)O)CC4)cc3)cc2)c1NC(=O)O[C@H](C)c1ccccc1 [BMS-986020]	significantly reduce

Tested on: human foetal lung fibroblasts
Experiment: not given
Settings: induced by BAL obtained from IPF patients; cited from earlier work

Structure (SMILES)	chemotaxis of human foetal lung fibroblasts
Cc1noc(-c2ccc(CSCCC(=O)O)cc2)c1NC(=O)OC(C)c1ccccc1Cl (stereo not drawn) [Ki16425]	blocked

Tested on: UUO mice
Experiment: not given
Settings: cited from earlier work

Structure (SMILES)	development of renal fibrosis
Cc1noc(-c2ccc(CSCCC(=O)O)cc2)c1NC(=O)OC(C)c1ccccc1Cl (stereo not drawn) [Ki16425]	closely resembled the profile of LPA1 (−/−) mice

Tested on: mouse epithelial renal cell line, MCT
Experiment: not given
Settings: LPA treatment of MCT cells, co-treatment; cited from earlier work

Structure (SMILES)	induction of CTGF expression
Cc1noc(-c2ccc(CSCCC(=O)O)cc2)c1NC(=O)OC(C)c1ccccc1Cl (stereo not drawn) [Ki16425]	almost completely suppressed

Tested on: pancreatic cancer cell lines
Experiment: not given
Settings: LPA-induced and ascites-induced; highly peritoneal metastatic pancreatic cancer cell line; cited from earlier work

Structure (SMILES)	invasion activity
Cc1noc(-c2ccc(CSCCC(=O)O)cc2)c1NC(=O)OC(C)c1ccccc1Cl (stereo not drawn) [Ki16425]	blocked

Same assay, conditions: in response to LPA and peritoneal fluid (ascites) from pancreatic cancer patients; cited from earlier work

Structure (SMILES)	in vitro migration
Cc1noc(-c2ccc(CSCCC(=O)O)cc2)c1NC(=O)OC(C)c1ccccc1Cl (stereo not drawn) [Ki16425]	effectively blocked

Target: T1, LPA1
Experiment: LPA1 functional antagonist assay (LPA-induced calcium flux)
Type: cell-based
Parameters: expressed in transfected cells; host or cells: Chinese hamster ovary (CHO) cells
Settings: CHO cells overexpressing human LPA1; calcium flux induced by 10 nM LPA; read-out: hLPA1 IC50
Procedure: The effectiveness of compounds of the present invention as LPA1 inhibitors can be determined in an LPA1 functional antagonist assay as follows:
Chinese hamster ovary cells overexpressing human LPA1 were plated overnight (15,000 cells/well) in poly-D-lysine coated 384-well microplates (Greiner bio-one, Cat #781946) in DMEM/F12 medium (Gibco, Cat #11039). Following overnight culture, cells were loaded with calcium indicator dye (AAT Bioquest Inc, Cat #34601) for 30 minutes at 37° C. The cells were then equilibrated to room temperature for 30 minutes before the assay. Test compounds solubilized in DMSO were transferred to 384 well non-binding surface plates (Corning, Cat #3575) using the Labcyte Echo acoustic dispense and diluted with assay buffer [1×HBSS with calcium/magnesium (Gibco Cat #14025-092), 20 mM HEPES (Gibco Cat #15630-080) and 0.1% fatty acid free BSA (Sigma Cat # A9205)] to a final concentration of 0.5% DMSO. Diluted compounds were added to the cells by FDSS6000 (Hamamatsu) at final concentrations ranging from 0.08 nM to 5 μM. and were then incubated for 20 min at room temperature at which time LPA (Avanti Polar Lipids Cat #857130C) was added at final concentrations of 10 nM to stimulate the cells. […] IC50 values were determined by fitting data to a 4-parameter logistic equation (GraphPad Prism, San Diego Calif.).

IC50	Structure (SMILES)
192 nM	C[C@@H](C1CC1)N(C)C(=O)OCc1c(-c2ccc(O[C@H]3CCC[C@H](C(=O)O)C3)cc2)cnn1C [Example 57]
38 nM	C[C@H](C1CC1)N(C)C(=O)OCc1c(-c2ccc(O[C@H]3CCC[C@H](C(=O)O)C3)cc2)cnn1C [Example 58]
401 nM	CCC(C)N(C)C(=O)OCc1c(-c2ccc(O[C@H]3CCC[C@H](C(=O)O)C3)cn2)cnn1C (stereo partly drawn) [Example 59]
11 nM	CCCCN(C)C(=O)OCc1c(-c2ccc(O[C@H]3CCC[C@H](C(=O)O)C3)c(C)c2)cnn1C [Example 60]
134 nM	CC(C1CC1)N(C)C(=O)OCc1c(-c2ccc(O[C@H]3CCC[C@H](C(=O)O)C3)cn2)cnn1C (stereo partly drawn) [Example 61]
31 nM	CN(C(=O)OCc1c(-c2ccc(O[C@H]3CCC[C@H](C(=O)O)C3)cn2)cnn1C)C1CCCC1 [Example 62]
46 nM	CN(CCC1CC1)C(=O)OCc1c(-c2ccc(O[C@H]3CCC[C@H](C(=O)O)C3)cc2)cnn1C [Example 63]
23 nM	CCCCN(C)C(=O)OCc1c(-c2ccc(O[C@H]3CCC[C@H](C(=O)O)C3)cc2)cnn1C [Example 64]
48 nM	Cc1nc(-c2cnn(C)c2COC(=O)N(C)[C@H](C)C2CC2)ccc1O[C@H]1CCC[C@H](C(=O)O)C1 [Example 65]
214 nM	CCCN(C)C(=O)OCc1c(-c2ncc(O[C@H]3CCC[C@H](C(=O)O)C3)c(C)n2)cnn1C [Example 66, (1S,3S)-3-((4-Methyl-2-(1-methyl-5-(((methyl(propyl)carbamoyl)oxy)methyl)-1H-pyrazol-4-yl)pyrimidin-5-yl)oxy)cyclohexane-1-carboxylic Acid]
59 nM	CCCCN(C)C(=O)OCc1c(-c2ncc(O[C@H]3CCC[C@H](C(=O)O)C3)c(C)n2)cnn1C [Example 67]
214 nM	Cc1nc(-c2cnn(C)c2COC(=O)N(C)CC(C)C)ncc1O[C@H]1CCC[C@H](C(=O)O)C1 [Example 68]
293 nM	Cc1nc(-c2cnn(C)c2COC(=O)N(C)CC2CC2)ncc1O[C@H]1CCC[C@H](C(=O)O)C1 [Example 69]
120 nM	Cc1nc(-c2cnn(C)c2COC(=O)N(C)C2CCC2)ncc1O[C@H]1CCC[C@H](C(=O)O)C1 [Example 70]
115 nM	Cc1nc(-c2cnn(C)c2COC(=O)N(C)C2CCCC2)ncc1O[C@H]1CCC[C@H](C(=O)O)C1 [Example 71]
60 nM	Cc1nc(-c2cnn(C)c2COC(=O)N(C)Cc2ccccc2)ncc1O[C@H]1CCC[C@H](C(=O)O)C1 [Example 72]
142 nM	Cc1nc(-c2cnn(C)c2COC(=O)N(C)CCCCCF)ncc1O[C@H]1CCC[C@H](C(=O)O)C1 [Example 73]
77 nM	Cc1nc(-c2cnn(C)c2COC(=O)N(C)CCCCF)ncc1O[C@H]1CCC[C@H](C(=O)O)C1 [Example 74]

IC50	Structure (SMILES)
82 nM	CCCCCN(C)C(=O)OCc1c(-c2ncc(O[C@H]3CCC[C@H](C(=O)O)C3)c(C)n2)cnn1C [Example 75]
346 nM	Cc1nc(-c2cnn(C)c2COC(=O)N(C)CC23CC(F)(C2)C3)ncc1O[C@H]1CCC[C@H](C(=O)O)C1 [Example 76]
125 nM	Cc1nc(-c2cnn(C)c2COC(=O)N(C)CC23CC(C2)C3)ncc1O[C@H]1CCC[C@H](C(=O)O)C1 [Example 77]
317 nM	Cc1nc(-c2cnn(C)c2COC(=O)N(C)CCC2CC2(F)F)ncc1O[C@H]1CCC[C@H](C(=O)O)C1 (stereo partly drawn) [Example 78]
93 nM	Cc1nc(-c2cnn(C)c2COC(=O)N(C)C2CCCCC2)ncc1O[C@H]1CCC[C@H](C(=O)O)C1 [Example 79]
71 nM	Cc1nc(-c2cnn(C)c2COC(=O)N(C)CC2CCC2)ncc1O[C@H]1CCC[C@H](C(=O)O)C1 [Example 80]
856 nM	Cc1nc(-c2cnn(C)c2COC(=O)NC2CCCCC2)ncc1O[C@H]1CCC[C@H](C(=O)O)C1 [Example 81]
79 nM	CCc1nc(-c2cnn(C)c2COC(=O)N(C)Cc2ccccc2)ncc1O[C@H]1CCC[C@H](C(=O)O)C1 [Example 82]
60 nM	CCc1nc(-c2cnn(C)c2COC(=O)N(C)C2CCCC2)ncc1O[C@H]1CCC[C@H](C(=O)O)C1 [Example 83]
13 nM	CCc1nc(-c2cnn(C)c2COC(=O)N(C)CC2CCC2)ncc1O[C@H]1CCC[C@H](C(=O)O)C1 [Example 84]
162 nM	CCc1nc(-c2cnn(C)c2COC(=O)N(C)CC2CC2)ncc1O[C@H]1CCC[C@H](C(=O)O)C1 [Example 85]
217 nM	CCc1nc(-c2cnn(C)c2COC(=O)N(C)C2CCC2)ncc1O[C@H]1CCC[C@H](C(=O)O)C1 [Example 86]
33 nM	CCCCN(C)C(=O)OCc1c(-c2ncc(O[C@H]3CCC[C@H](C(=O)O)C3)c(CC)n2)cnn1C [Example 87]
1260 nM	CCCN(C)C(=O)OCc1c(-c2ncc(O[C@H]3CCC[C@H](C(=O)O)C3)c(CC)n2)cnn1C [Example 88]
23 nM	CC(C1CC1)N(C)C(=O)OCc1c(-c2ccc(O[C@H]3CCC[C@H](C(=O)O)C3)cc2)cnn1C (stereo partly drawn) [Example 89]
309 nM	Cc1nc(-c2cnn(C)c2COC(=O)N2CC(C)(C)C2)ccc1O[C@H]1CCC[C@H](C(=O)O)C1 [Example 90]
32 nM	Cc1nc(-c2cnn(C)c2COC(=O)N(C)C[C@@H]2C[C@H]2C)ncc1O[C@H]1CCC[C@H](C(=O)O)C1 [Example 91]
45 nM	Cc1nc(-c2cnn(C)c2COC(=O)N(C)C[C@H]2C[C@@H]2C)ncc1O[C@H]1CCC[C@H](C(=O)O)C1 [Example 92]
